Source: patent US8765786B2, “1-substituted indazole derivative” (Dainippon Sumitomo Pharma Co., Ltd., priority 2012, dated 2014)

What was measured:
Slc: Wistar rats = assay: Y-shaped maze test in rats, scopolamine-induced cognitive impairment; type: in vivo; conditions: 0.6 mg/kg scopolamine HBr s.c.
Experimental: In Y-maze test, 0.6 mg/kg scopolamine HBr (cat#S0929, Sigma Aldrich, Japan) can be subcutaneously administered to Slc: Wistar rats (280 g to 300 g, male, Japan SLC) to cause cognitive impairment and decrease the percentage of alternation behavior. According to the test mechanism, the present compounds were treated prior to the administration of scopolamine, and the improvement effect on cognitive impairment was evaluated.

[1] = target: T1, hERG (human ether-a-go-go) potassium current (Homo sapiens, UniProt Q12809); assay: hERG inhibition test (whole-cell patch clamp, QPatch HT, CHO cells); type: cell-based; conditions: room temperature
T1 construct: expressed in transfected cells; host or cells: CHO cells
Experimental: The hERG (human ether-a-go-go) potassium current in CHO cells which stably express hERG gene was recorded by whole-cell patch clamping technique using an automated patch clamp system, QPatch HT (Sophion Bioscience A/S). Inducing the hERG current, the membrane potential was held at −80 mV in voltage clamp mode, and then depolarized to −50 mV for 20 msec and then +20 mV for 5 sec. Then, the membrane potential was repolarized to −50 mV for 5 sec and the tail current amplitude was measured. The stimulation was given at a frequency of every 15 seconds, and the experiment was carried out at room temperature (22±2° C.) The compound was cumulatively administered to each cell in 4 concentrations, wherein the administration was done over 5 minutes in each concentration. The inhibition percentage of the inhibited current was calculated by comparing the current intensities before and after the compound was given in each concentration. According to Hill equation, each 50% inhibitory concentration was calculated (IC50 [μmol/L]). The test solutions used herein were as follows: extracellular solution (mmol/L): 2 CaCl2, 1 MgCl2, 10 HEPES, 4 KCl, 145 NaCl, 10 glucose,
intracellular solution (mmol/L): […], 1.8 MgCl2, 10 HEPES, 31 KOH, 10 EGTA, 120 KCl, 4 ATP

Slc: ddY mice = assay: Novel object recognition test in mice (mORT); type: in vivo; conditions: for minimum effective dose: administered prior to 1st trial, 2nd trial 24 hours later; for efficacy at higher doses: dose of 0.3 mg/kg, 1.0 mg/kg or 3 mg/kg
Experimental: Slc: ddY mice (25 g to 30 g, male, Japan SLC) can be used in the novel object recognition test wherein the interval between the 1st trial (training) and the 2nd trial (test) correlates with the memory loss for the objects used in the 1st trial, and a significant memory-loss is observed when the 2nd trial is performed 24 hours after the 1st trial. According to the test mechanism, the present compounds were administered prior to the 1st trial, and the enhancement effect on memory in the 2nd trial was evaluated.

human α7 nAChR = target: T2, human α7 nAChR (Homo sapiens, UniProt P36544); assay: Evaluation of PAM activity with human α7 nACh receptor stably expressing cells (aequorin luminescence, FDSS7000); type: cell-based; conditions: test compound 10 μmol/L, ACh added at EC20, ratio of RLU (Max-Min) of test wells to control wells; for activity at 10 µM: read-out: α7PAM (%) @ 10 μmol/L
T2 construct: expressed in transfected cells; host or cells: GH4C1 cells derived from rat pituitary (ATCC CCL-82.2)
In short: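 PAM activity defined as RLU (Max-Min) of compound wells over control wells, from 465 nm aequorin luminescence tracked 138 s after ACh challenge. Host: GH4C1 (rat pituitary) stably co-expressing human α7 nAChR and aequorin, pre-loaded 4 h with 4 μmol/L luminescent substrate.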

Rat PK test = type: in vivo; conditions: plasma, rats, intravenous and oral administration
Experimental: The present compound was administered intravenously in saline solution or orally in methylcellulose solution to 7 weeks old rats, and their blood was collected according to the following schedule:
(intravenous administration) 5 minutes, 15 minutes, 30 minutes, 1 hour, 2 hours, 4 hours, 6 hours and 24 hours after the administration
(oral administration) 15 minutes, 30 minutes, 1 hour, 2 hours, 4 hours, 6 hours and 24 hours after the administration
The collected blood was centrifuged at 3000 rpm for 10 minutes in a refrigerated centrifuge set at 4° C. The obtained plasma was measured with a HPLC to give a time curve of plasma level, thereby calculating the pharmacokinetic parameters.

[2] = Measurement of brain penetration; type: in vivo; conditions: LC-MS/MS of plasma and brain homogenates; for Kp: read-out: concentration ratio of the brain to the plasma
Excerpt: The plasma and brain homogenates were deproteinized with methanol and then centrifuged. The supernatant was filtered, and the obtained sample was quantified with LC-MS/MS to calculate the concentration of the plasma and brain.

[3] = Measurement of protein binding ratio (equilibrium dialysis); type: in vitro ADME, human

T1 sequence (Q12809 whole entry): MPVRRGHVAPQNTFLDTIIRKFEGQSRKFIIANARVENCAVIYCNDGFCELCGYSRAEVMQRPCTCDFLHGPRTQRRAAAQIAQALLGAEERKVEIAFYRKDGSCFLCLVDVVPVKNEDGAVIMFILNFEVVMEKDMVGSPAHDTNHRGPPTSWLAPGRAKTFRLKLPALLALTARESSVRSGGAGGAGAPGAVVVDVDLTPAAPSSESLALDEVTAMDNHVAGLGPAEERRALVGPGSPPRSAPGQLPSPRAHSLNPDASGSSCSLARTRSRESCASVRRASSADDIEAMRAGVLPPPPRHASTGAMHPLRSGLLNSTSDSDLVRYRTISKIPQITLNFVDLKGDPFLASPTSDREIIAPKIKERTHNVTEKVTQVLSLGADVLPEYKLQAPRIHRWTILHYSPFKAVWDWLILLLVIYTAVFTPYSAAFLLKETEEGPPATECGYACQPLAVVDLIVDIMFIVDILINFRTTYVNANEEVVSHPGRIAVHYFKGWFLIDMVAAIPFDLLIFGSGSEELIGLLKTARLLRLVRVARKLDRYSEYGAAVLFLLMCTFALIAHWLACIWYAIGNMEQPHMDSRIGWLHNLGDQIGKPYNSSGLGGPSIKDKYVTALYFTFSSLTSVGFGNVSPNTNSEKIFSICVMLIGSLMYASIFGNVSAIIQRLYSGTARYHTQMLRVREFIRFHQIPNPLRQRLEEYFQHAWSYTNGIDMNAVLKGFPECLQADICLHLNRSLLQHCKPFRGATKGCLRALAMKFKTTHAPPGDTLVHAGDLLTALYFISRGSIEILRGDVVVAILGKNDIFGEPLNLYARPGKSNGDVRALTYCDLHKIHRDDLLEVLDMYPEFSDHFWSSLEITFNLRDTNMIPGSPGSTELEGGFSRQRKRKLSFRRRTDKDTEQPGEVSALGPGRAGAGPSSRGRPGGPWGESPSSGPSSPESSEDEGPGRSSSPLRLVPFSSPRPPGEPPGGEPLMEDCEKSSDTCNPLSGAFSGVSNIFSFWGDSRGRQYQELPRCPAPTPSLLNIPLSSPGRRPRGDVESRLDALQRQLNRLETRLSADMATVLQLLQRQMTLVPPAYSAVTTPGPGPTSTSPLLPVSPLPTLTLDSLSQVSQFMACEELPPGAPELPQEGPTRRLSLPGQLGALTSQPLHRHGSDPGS
T2 sequence (P36544 23-502): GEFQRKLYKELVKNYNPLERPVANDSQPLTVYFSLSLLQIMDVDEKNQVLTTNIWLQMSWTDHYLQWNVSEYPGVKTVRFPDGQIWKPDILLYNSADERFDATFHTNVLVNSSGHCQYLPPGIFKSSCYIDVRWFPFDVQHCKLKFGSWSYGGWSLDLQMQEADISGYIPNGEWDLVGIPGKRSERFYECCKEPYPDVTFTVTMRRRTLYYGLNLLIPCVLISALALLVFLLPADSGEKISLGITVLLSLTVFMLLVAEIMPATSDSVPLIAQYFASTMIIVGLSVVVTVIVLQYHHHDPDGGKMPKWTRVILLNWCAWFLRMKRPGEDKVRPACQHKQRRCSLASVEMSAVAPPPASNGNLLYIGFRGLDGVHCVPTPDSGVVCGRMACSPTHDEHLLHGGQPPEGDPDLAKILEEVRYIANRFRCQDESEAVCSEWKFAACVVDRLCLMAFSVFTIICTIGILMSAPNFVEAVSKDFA

SMILES: CO[C@H]1CC[C@H](NC(=O)N2CCC(n3ncc4cc(C5CC5)ccc43)CC2)CC1 [Example 74, 4-(5-cyclopropyl-1H-indazol-1-yl)-N-(trans-4-methoxycyclohexyl)piperidine-1-carboxamide]
- dose from which cognitive function was significantly improved (Slc: Wistar rats): 0.3 mg/kg
- IC50 [1]: 13.2 µM
- minimum effective dose (Slc: ddY mice): 0.1 mg/kg
- efficacy at higher doses (Slc: ddY mice): efficacy did not decrease

SMILES: O=C(NC1CCOCC1)N1CCC(n2ncc3cc(OC(F)(F)F)ccc32)CC1 [Example 227, N-(tetrahydro-2H-pyran-4-yl)-4-[5-(trifluoromethoxy)-1H-indazol-1-yl]piperidine-1-carboxamide]
- activity at 10 µM (human α7 nAChR): 768%
- bioavailability (Rat PK test): 69%
- Kp [2]: 1.92

SMILES: CO[C@H]1CC[C@H](NC(=O)N2CCC(n3ncc4cc(C(F)(F)F)ccc43)CC2)CC1 [Example 163, N-(trans-4-methoxycyclohexyl)-4-[5-(trifluoromethyl)-1H-indazol-1-yl]piperidine-1-carboxamide]
- activity at 10 µM (human α7 nAChR): 318%
- bioavailability (Rat PK test): 41%
- Kp [2]: 2.01

SMILES: CCc1ccc2c(c1)c(OC(C)C)nn2C1CCN(C(=O)NC2CCOCC2)CC1 [Example 63, 4-(5-ethyl-3-isopropoxy-1H-indazol-1-yl)-N-(tetrahydro-2H-pyran-4-yl)piperidine-1-carboxamide]
- activity at 10 µM (human α7 nAChR): 358%
- dose from which a tendency to improve cognitive function was shown (Slc: Wistar rats): 0.3 mg/kg
- IC50 [1]: > 10 µM
- dose at which efficacy was shown (Slc: ddY mice): 3 mg/kg

SMILES: CCc1cccc2c1cnn2C1CCN(C(=O)N[C@H]2CC[C@H](OC)CC2)CC1 [Example 66, 4-(4-ethyl-1H-indazol-1-yl)-N-(trans-4-methoxycyclohexyl)piperidine-1-carboxamide]
- activity at 10 µM (human α7 nAChR): 466%
- dose at which efficacy was shown (Slc: ddY mice): 1 mg/kg

SMILES: CO[C@H]1CC[C@H](NC(=O)N2CCC(n3ncc4cc(C)ccc43)CC2)CC1 [Example 1, N-(trans-4-methoxycyclohexyl)-4-(5-methyl-1H-indazol-1-yl)piperidine-1-carboxamide]
- dose from which cognitive function was significantly improved (Slc: Wistar rats): 0.3 mg/kg
- IC50 [1]: 84.3 µM
- bioavailability (Rat PK test): 41%
- Kp [2]: 1.27
- protein binding ratio in the brain ([3]; brain): 91.9%
- protein binding ratio in the plasma ([3]; plasma): 84.7%
- minimum effective dose (Slc: ddY mice): 0.1 mg/kg
- efficacy at higher doses (Slc: ddY mice): efficacy did not decrease

SMILES: COc1nn(C2CCN(C(=O)NC3CCCCC3)CC2)c2ccc(C)cc12 [Example 258]
- α7PAM (%) @ 10 μmol/L (human α7 nAChR): 941%
- IC50 [1]: 47.3 µM
- concentration ratio of the brain to the plasma [2]: 1.55

SMILES: COc1ccc2c(cnn2C2CCN(C(=O)NC3CCCC3(F)F)CC2)c1 (stereo not drawn) [Example 87]
- α7PAM (%) @ 10 μmol/L (human α7 nAChR): 514%

SMILES: CCOC1CCC(NC(=O)N2CCC(n3ncc4c(C)cccc43)CC2)CC1 (stereo not drawn) [Example 96]
- α7PAM (%) @ 10 μmol/L (human α7 nAChR): 143%

SMILES: COc1c(Br)ccc2c1cnn2C1CCN(C(=O)NC2CCC(F)(F)CC2)CC1 [Example 284]
- α7PAM (%) @ 10 μmol/L (human α7 nAChR): 1109%

SMILES: CCOc1ccc2c(cnn2C2CCN(C(=O)C3CCCC3)CC2)c1 [Example 110]
- α7PAM (%) @ 10 μmol/L (human α7 nAChR): 291%

SMILES: O=C(C1CCOCC1)N1CCC(n2ncc3cc(C4CC4)ccc32)CC1 [Example 140]
- α7PAM (%) @ 10 μmol/L (human α7 nAChR): 265%

SMILES: COc1ccc(-c2ccc3c(cnn3C3CCN(C(=O)NC4CCC(F)(F)CC4)CC3)c2)cc1 [Example 156]
- α7PAM (%) @ 10 μmol/L (human α7 nAChR): 358%

SMILES: Cc1ccc2c(cnn2C2CCN(C(=O)C3CCC(F)(F)CC3)CC2)c1 [Example 133]
- α7PAM (%) @ 10 μmol/L (human α7 nAChR): 568%

SMILES: O=C(NC1CCCC1)N1CCC(n2ncc3cc(Cl)ccc32)CC1 [Example 33, 4-(5-chloro-1H-indazol-1-yl)-N-cyclopentylpiperidine-1-carboxamide]
- activity at 10 µM (human α7 nAChR): 430%

SMILES: COc1ccc2c(c1)c(C)nn2C1CCN(C(=O)N[C@H]2CC[C@H](OC)CC2)CC1 [Example 242]
- α7PAM (%) @ 10 μmol/L (human α7 nAChR): 901%

SMILES: O=C(NC1CCOCC1)N1CCC(n2ncc3cc(C(F)(F)F)ccc32)CC1 [Example 297]
- α7PAM (%) @ 10 μmol/L (human α7 nAChR): 340%

SMILES: O=C(NC1CCOCC1)N1CCC(n2ncc3cc(Br)ccc32)CC1 [Example 65]
- α7PAM (%) @ 10 μmol/L (human α7 nAChR): 385%

SMILES: CCc1ccc2c(cnn2[C@H]2CC[C@@H](NC(=O)C3CCOCC3)CC2)c1 [Example 120]
- α7PAM (%) @ 10 μmol/L (human α7 nAChR): 654%

SMILES: COc1ccc2c(c1)c(C)nn2C1CCN(C(=O)NC2CCC(F)(F)CC2)CC1 [Example 243]
- α7PAM (%) @ 10 μmol/L (human α7 nAChR): 842%

SMILES: COCCCc1ccc2c(cnn2C2CCN(C(=O)NC3CCC(F)(F)CC3)CC2)c1 [Example 26]
- α7PAM (%) @ 10 μmol/L (human α7 nAChR): 521%

SMILES: COC1CCC(NC(=O)N2CCC(n3ncc4cc(F)ccc43)CC2)CC1 (stereo not drawn) [Example 29]
- α7PAM (%) @ 10 μmol/L (human α7 nAChR): 206%

SMILES: Cc1ccc2c(cnn2C2CCN(C(=O)N[C@H]3CC[C@H](OC(F)F)CC3)CC2)c1 [Example 154]
- α7PAM (%) @ 10 μmol/L (human α7 nAChR): 811%

SMILES: CCOc1nn(C2CCN(C(=O)NC3CCCCC3)CC2)c2ccc(CC)cc12 [Example 60]
- α7PAM (%) @ 10 μmol/L (human α7 nAChR): 846%

SMILES: CO[C@H]1CC[C@H](NC(=O)N2CCC(n3ncc4cc(OC(F)(F)F)ccc43)CC2)CC1 [Example 219, N-(trans-4-methoxycyclohexyl)-4-[5-(trifluoromethoxy)-1H-indazol-1-yl]piperidine-1-carboxamide]
- activity at 10 µM (human α7 nAChR): 238%
